Test results as given in US20120142771A1, “BIPHENYLACETAMIDE DERIVATIVE” (Dainippon Sumitomo Pharma Co., Ltd., priority 2008, published 2012).

Assays:
[1] = system: maximum electroshock seizure (MES) model; test: Maximum electroshock seizure (MES) model test; type: in vivo, mice
Outline: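 Male Slc: ddY mice (3 per group, 20-30 g) received compound orally at 50 or 100 mg/kg; controls got 0.5% tragacanth or 0.5% methylcellulose. One hour post-dose, corneal stimulation (60 Hz, 25 mA, 0.2 s) induced tonic hind-limb extensor convulsion.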

[2] = system: subcutaneously pentetrazol-injected model (scPTZ); test: Subcutaneously pentetrazol-injected model (scPTZ) test; type: in vivo, mice; details: pentetrazol 85 mg/kg s.c. after 1 hour
Outline: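 Male Slc:ddY mice (20-30 g, 3 per group) dosed orally at 50 or 100 mg/kg; pentetrazol 85 mg/kg given subcutaneously 1 h later. Controls received 0.5% tragacanth or 0.5% methylcellulose vehicle.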

[3] = system: 6 Hz psychomotor seizure model; test: 6 Hz psychomotor seizure model; type: in vivo, mice; details: mice, oral
Experimental: Test 4: Test of 6 Hz Psychomotor Seizure Model
Similar to Tests 1 and 2, Test 4 evaluates the anticonvulsant action of medicaments. However, unlike Tests 1 and 2, the animal model used herein represents clinical phenotypes of seizures resistant to existing antiepileptic drugs. […] After 30 minutes or an hour of administration, their corneas were electrically stimulated (6 Hz, 32 mA, 3 seconds) to induce symptoms of myoclonus in their forelimbs, Straub tail, and immobility. […] To the control mice, 0.5% tragacanth solution, 0.5% methylcellulose solution, or olive oil was administered.

Crl: CD (SD) male rats = test: Evaluation of antidepressant effect (forced swimming, duration of immobility); type: in vivo
Description: (§1) Meanwhile, there are no reports about animal models which provide a good clinical prediction to evaluate the improving efficacy for bipolar disorder. However, bipolar disorder comprises “manic state” and “depressive state”, and some animals are reported to be useful as a model to evaluate the improvement of each pathological condition individually. In general, an index of manic state is excessive hyperactivity induced by administering methamphetamine and chlordiazepoxide in combination, and that of depressive state is immobility induced by forced swimming.
Test 6: Evaluation of Antidepressant Effect
Test 6 is a typical test to evaluate the antidepressant activity of medicaments (Porsolt et al., Nature, 266: 730-732, 1977, Porsolt et al., Eur. J. Pharmacol., 47: 379-391, 1978). Crl: CD (SD) male rats (12 rats in each group, body weight 200-250 g) were forced to swim for 15 minutes in a water pool with 200 mm diameter. In the pool, water was filled up to a depth of 205 mm from the bottom of the pool, and thus the rats could not touch the bottom of the pool with their hind limbs. Fifteen minutes after the completion of the forced swimming, test compounds were orally administered to the rats. On the next day, the test compounds were administered to the rats at the same dose as the previous day, and the rats were put in the pool for 5 minutes at the same clock time as the previous day. […] The antidepressant effect was evaluated by calculating how long the duration of immobility was shortened against the control. To the control, 0.5% methylcellulose solution was administered.

Slc: C57BL/6J male mice = test: Evaluation of antimanic effect (methamphetamine and chlordiazepoxide induced hyperactivity, locomotor distance); type: in vivo; details: for The rate of the shortened locomotor-distance (% control): methamphetamine 4 mg/kg and chlordiazepoxide 10 mg/kg i.p.
Description: as §1
Test 7: Evaluation of Antimanic Effect
Test 7 evaluates the antimanic effect of medicaments. The evaluation system is a test system whose utility has been already confirmed with a known antimanic agent which is clinically used as a mood-stabilizing drug, not as a drug for treating schizophrenia (Arban et al., Behay. Brain Res., 158:123-132, 2005, Foreman et al., Pharmacol. Biochem. Behay., 89: 523-534, 2008). Test compounds were orally administered to Slc: C57BL/6J male mice (8 mice in each group, body weight 20-26 g). After 30 minutes of administration, methamphetamine (4 mg/kg) and chlordiazepoxide (10 mg/kg) were administered intraperitoneally. Then, the mice were allowed to move freely in an acrylic cage (W 360 mm×D 230 mm×H 310 mm) for 90 minutes. The locomotor distances of the mice were measured with Ethovision software (Ver. 3.1). Among the 90 minutes, the result of the latter 60 minutes with the exception of the first 30 minute's result for adaptation to the new environment was used as data of the locomotor distance. The antimanic effect was evaluated by calculating how long locomotor distance was shortened against the control. To the control mice, 0.5% methylcellulose solution was administered.

In the case of `NC(=O)Cc1ccccc1-c1ccccc1Cl` [Example 16, 2-(2′-chlorobiphenyl-2-yl)acetamide], the responders at 50 mg/kg ([1]; Mus musculus, po, 1 h, 50 mg/kg oral, Slc: ddY male mice, 3 per group, electrical stimulation 1 hour after administration, inhibition of hind limb extension, read-out: MES (positive number/tested number) (converted)) is reported as 100%, the responders at 100 mg/kg ([1]; Mus musculus, po, 1 h, 100 mg/kg oral, Slc: ddY male mice, 3 per group, electrical stimulation 1 hour after administration, inhibition of hind limb extension, read-out: MES (positive number/tested number) (converted)) is reported as 100% and the “anticonvulsant action in maximum electroshock seizure (MES) model test” value ([1]; mice, oral 50 or 100 mg/kg, 1 hour after administration) is reported as “anticonvulsant action was observed”. The responders at 50 mg/kg ([2]; Mus musculus, po, 1 h, 50 mg/kg oral, Slc: ddY male mice, 3 per group, observed 30 minutes for clonic convulsion, read-out: scPTZ (positive number/tested number) (converted)) was 66.7%, the responders at 100 mg/kg ([2]; Mus musculus, po, 1 h, 100 mg/kg oral, Slc: ddY male mice, 3 per group, observed 30 minutes for clonic convulsion, read-out: scPTZ (positive number/tested number) (converted)) was 100% and the “anticonvulsant action in subcutaneously pentetrazol-injected model (scPTZ) test” value ([2]; mice, oral 50 or 100 mg/kg) was “anticonvulsant action was observed”. The ED50 ([3]; Mus musculus, 6 Hz psychomotor seizure model, read-out: ED50) was 38.1 mg/kg, the “6 Hz (Positive number/tested number)” value ([3]; dose 50 mg, 30 minutes or 1 hour after administration) was 8/10/50 and the “The rate of the shortened duration of immobility (% control)” value (Crl: CD (SD) male rats; 10 mg/kg oral) was 19.9 % control. For the same compound, the “The rate of the shortened duration of immobility (% control)” value (Crl: CD (SD) male rats; 30 mg/kg oral) was 21.9 % control, the “The rate of the shortened locomotor-distance (% control)” value (Slc: C57BL/6J male mice; 30 mg/kg oral) was 45.7 % control and the “The rate of the shortened locomotor-distance (% control)” value (Slc: C57BL/6J male mice; 60 mg/kg oral) was 69.1 % control. The “The rate of the shortened locomotor-distance (% control)” value (Slc: C57BL/6J male mice; 100 mg/kg oral) was 84.9 % control.

`Nc1nnc(-c2cccc(Cl)c2Cl)c(N)n1` [Lamotrigine, reference compound] was tested, and the duration of immobility (Crl: CD (SD) male rats; same conditions) was “dose-dependently shortened” and the locomotor distance (Slc: C57BL/6J male mice; same conditions) was “dose-dependently shortened”.
